Patent US20210371351A1, “MIXTURES COMPRISING AT LEAST TWO DIFFERENT NITRIFICATION INHIBITORS SELECTED FROM 2-(3,4-DIMETHYL-1H-PYRAZOL-1-YL)SUCCINIC ACID (DMPSA), 3,4-DIMETHYL PYRAZOLIUM GLYCOLATE (DMPG) AND OTHER COMPOUNDS” (BASF SE, priority 2017, published 2021)

Legend:
[1] = tested on: nitrification; assay: Example 4: soil column trial (soil Limburgerhof), DMPSA and DMPP, other weight ratios; incubation 10 d at 15° C.; % inhibition of NO3-N formation (Böhland), Colby; details: 10 days of incubation at 15° C.
Text: The effect on NH4+ retention and NH4+ to NO3− ratios in the soil after fertilization of ammonium sulfate with the addition of DMPP, DMPSA or a combination of DMPP and DMPSA was investigated in column trials simulating climatic conditions of spring time in central Europe. Soil Limburgerhof (pH(CaCl2) 6.8, texture: 73% sand; 24% silt, 3% clay) was filled dry into a glass column with an inner width of 4 cm. At the bottom 0.4 g cotton wool was placed above which a frit (Co. Robu, pore size 1) was placed above which 100 g of 2 mm sieved soil Limburgerhof was layered. The soil height in the column was about 7 cm. Before fertilization the soil was brought to about 60% of its water holding capacity (WHC) be adding 14.4 mL of deionized water. Per column 10 mg NH4—N as ammonium sulfate was fertilized or not (control) together or not with 0.005% or 0.015% DMPP (DMPP obtained from BASF SE), 0.45% DMPSA (DMPSA used as free acid obtained from BASF SE) and […] or 0.015% DMPP plus 0.45% DMPSA (% of nitrification inhibitor w/w of NH4-N). Every treatment was replicated three times. After fertilization, 50 mL demineralized water was carefully and slowly placed on top of each column which equals about 31 mm precipitation. After 24 h the eluate was collected and by sucking off the soil to bring it back to about 60% of its WHC. All handlings including soil preparation, fertilization and the temperature of the water for both wetting the soil and the artificial precipitation up to the collection of the eluate 24 h after fertilization was performed at 5° C.
(§1) Thereafter, the columns were incubated for 10 d or 20 d at constantly 15° C. in an incubator. After 7 d and 14 d water was added by weight where needed to bring the soils uniformly to 60% WHC. After 10 d or 20 d the soil was removed from the columns and extracted with 1% (w/w) K2SO4 solution by shaking for 2 h at room temperature. The filtrated extract was then analyzed for NH4+ and NO3− colorimetrical by an autoanalyzer.
(§2) To calculate the inhibition of nitrate formation by the nitrification inhibitors during the incubation, the above-mentioned Böhland equation was used. To examine synergistic effects of the combination of DMPP+DMPSA the formula by Colby (Colby, S.R., “Calculating synergistic and antagonistic responses of herbicide Combinations”, Weeds, 15, pp. 20-22, 1967) was used. To determine background levels of NH4+ to NO3−, every treatment was also extracted immediately after fertilization and after leaching prior to the further incubation at 15° C. for 10 d or 20 d.

[2] = tested on: nitrification; assay: Example 3: soil column trial (soil Limburgerhof) with ammonium sulfate, DMPP, DMPSA or DMPP+DMPSA; leaching at 5° C., incubation 10 d or 20 d at 15° C.; NH4-N/NO3-N, % inhibition of NO3-N formation (Böhland), Colby; details: 0.05% DMPP, 0.45% DMPSA
Text: The effect on NH4^+ retention and NH4^+ to NO3^− ratios in the soil after fertilization of ammonium sulfate with the addition of DMPP, DMPSA or a combination of DMPP and DMPSA was investigated in column trials simulating climatic conditions of spring time in central Europe. Soil Limburgerhof (pH(CaCl2) 6.8, texture: 73% sand; 24% silt, 3% clay) was filled dry into a glass column with an inner width of 4 cm. At the bottom 0.4 g cotton wool was placed above which a frit (Co. Robu, pore size 1) was placed above which 100 g of 2 mm sieved soil Limburgerhof was layered. The soil height in the column was about 7 cm. Before fertilization the soil was brought to about 60% of its water holding capacity (WHC) be adding 14.4 mL of deionized water. Per column 10 mg NH4—N as ammonium sulfate was fertilized or not (control) together or not with 0.05% DMPP (DMPP obtained from BASF SE), 0.45% DMPSA (DMPSA used as free acid obtained from BASF SE) and 0.05% DMPP plus 0.45% DMPSA (% of nitrification inhibitor w/w of NH4—N). Every treatment was replicated three times.
After fertilization, 50 mL demineralized water was carefully and slowly placed on top of each column which equals about 31 mm precipitation. After 24 h the eluate was collected and by sucking off the soil to bring it back to about 60% of its WHC. All handlings including soil preparation, fertilization and the temperature of the water for both wetting the soil and the artificial precipitation up to the collection of the eluate 24 h after fertilization was performed at 5° C.
as §1, with “and 14 d, water was” for “and 14 d water was”, “or 20 d, the soil” for “or 20 d the soil”, “analyzed for NH4^+ and NO3” for “analyzed for NH4+ and NO3−”, “NH4^+ and NO3 colorimetrical by” for “NH4+ and NO3− colorimetrical by”
as §2

[3] = 0.015% DMPP, alone or + 0.45% DMPSA
[4] = 10 days of incubation at 15° C.
[5] = 20 days of incubation at 15° C.

In the case of `Cc1c[nH]nc1C.O=P(O)(O)O` [DMPP, 3,4-dimethyl pyrazole phosphate and/or 4,5-dimethyl pyrazole phosphate], the “During incubation: % inhibition of NO3—N formation by NI acc. to Böhland equation (1973) (MV)” value (“During incubation: % inhibition” below) ([1]; 0.005% DMPP, 0.45% DMPSA) is reported as −4.6%, the “Net NI effect % NH4 from fertilized NH4 (MV)” value (“Net NI effect % NH4” below) ([1]; 0.005% DMPP, 0.45% DMPSA) is reported as 6.22% and the “Ratio NH4—N/NO3—N (MV)” value ([1]; 0.005% DMPP, 0.45% DMPSA) is reported as 0.10. The “Soil mg/100 g NH4—N (MV)” value ([1]; 0.005% DMPP, 0.45% DMPSA) was 0.65 mg/100 g, the “Soil mg/100 g NO3—N (MV)” value ([1]; 0.005% DMPP, 0.45% DMPSA) was 6.94 mg/100 g and the “During incubation: % inhibition” value [1, 3] was 15.7%. The “Net NI effect % NH4” value [1, 3] was 11.49%, the “Ratio NH4—N/NO3—N (MV)” value [1, 3] was 0.21 and the “Soil mg/100 g NH4—N (MV)” value [1, 3] was 1.18 mg/100 g. The “Soil mg/100 g NO3—N (MV)” value [1, 3] was 5.59 mg/100 g, the “During incubation: % inhibition” value [2, 4] was 69.8% and the “Net NI effect % NH4” value [2, 4] was 41.02%. The “Ratio NH4—N/NO3—N (MV)” value [2, 4] was 2.86, the “Soil mg/100 g NH4—N (MV)” value [2, 4] was 6.58 mg/100 g and the “Soil mg/100 g NO3—N (MV)” value [2, 4] was 2.34 mg/100 g. For the same compound, the “During incubation: % inhibition” value [2, 5] was 14.9%, the “Net NI effect % NH4” value [2, 5] was 6.67% and the “Ratio NH4—N/NO3—N (MV)” value [2, 5] was 0.08. The “Soil mg/100 g NH4—N (MV)” value [2, 5] was 0.68 mg/100 g and the “Soil mg/100 g NO3—N (MV)” value [2, 5] was 8.60 mg/100 g.
